The values that follow come from patent publication US12138240B2, “Treatment of cardiac dysfunction” (priority 2017, dated 2024).

Series [1] can be described thus: phase I single ascending dose study, plasma concentrations of ANAVEX 2-73 and metabolite ANAVEX 19-144. The format is in vivo, human. As to conditions: for plasma concentration of the labelled analyte: 1 mg ANAVEX 2-73 oral dose; for concentration at 24 h / Cmax: human, plasma; for concentration at 24 h: one subject, 40 mg ANAVEX 2-73 oral, 24 hr time point, read-out: plasma concentration of the labelled analyte; for Cmax: male. The method, then:
(§1) Seventeen subjects contributed ECG data to the analysis dataset. The study was randomized single dose escalating phase I first-in-human study designed to investigate the safety and tolerability, and pharmacokinetics of ascending oral doses of ANAVEX 2-73 in male healthy subjects. It was double-blind and placebo-controlled within each dosage step—a two cohort study with alternating single dose escalation performed in male healthy subjects. Subjects were administered 10, 30, 40, 50, or 60 mg of ANAVEX 2-73 orally with a 4-week washout between doses. Sampling for drug and ECG was from predose to 48 hr. Note that Placebo-adjusted (delta-delta) change in QTcF is represented as ΔΔQTcF.
Blood samples for ANAVEX 2-73 and metabolite ANAVEX 19-144 plasma concentration determination were drawn on Day 1 at time zero, T0, (before drug administration), T+0.25 h (15 min), T+0.5 h (30 min), T+1 h, T+1.5 h, T+2 h, T+3 h, T+3.5 h, T+4 h, T+6 h, T+8 h and T+12 h, on Day 2 at T+24 h and T+36 h, and on Day 3 at T+48 h.
The PK variables employed in the analysis were the patient-, regimen- and time-specific observed plasma concentration of ANAVEX 2-73 and ANAVEX 19-144.
The dataset comprised observed ANAVEX 2-73 and ANAVEX 19-144 plasma concentrations that were direct matches in time with QT interval measurements. The analysis variable of interest was the QT interval duration corrected for RR interval duration according to Fridericia's formula (i.e., QTcF), HR, and change from baseline QT interval duration corrected for RR interval duration according to Fridericia's formula (ΔQTcF or dQTcF). Baseline is defined as the mean of any and all values immediately obtained prior to ANAVEX 2-73 administration.

For series [2], the system named is male healthy subjects. Briefly: linear exposure-heart rate model (NONMEM). More on the design: species or system human. The text has this:
(§2) Data analysis proceeded from data structure analysis in S-PLUS to linear/nonlinear mixed effects modeling in NONMEM to develop the exposure-QTc relationship for ANAVEX 2-73 and its active metabolite ANAVEX 19-144. The correction method used for QT interval was the Fridericia's correction. The bootstrap was used to determine the reliability/stability of the exposure-QTc models developed. This was necessary to determine if the modeling results obtained with data from the 17 subjects would be applicable to the population at large, given the sample size. Exposure-heart rate and exposure-change from baseline QTc, and exposure-placebo corrected QTc relationship models were developed for the elucidation of any exposure-QTc relationship.
Concentration-QTc modeling was performed with the software NONMEM v7.3 (Icon Development Solutions, Ellicott City, MD) and graphical analysis, diagnostics plots, and supporting analyses using S Plus v8.2 (TIBCO Software, Boston, MA) and the R package.
Further modeling characterizes the exposure-heart rate relationship. […] for the model were ANAVEX 2-73 and ANAVEX 19-144 concentrations, and time. The baseline heart rate was also estimated. The best model developed to explain the exposure-heart rate relationship included all three variables. Again, ANAVEX 2-73 concentration by itself was not initially biologically QT active, but became active as metabolized to A19-144 in the model. At about 4 to 8 hours post administration A19-144 peaks and surpasses A2-73 at about 8 hours post administration. […] The metabolism of A2-73 to A19-144 modifies this effect. […] It is important to note the upward and negative inflexions in the parent compound and the active metabolite in the final model, respectively, are not indicative of model misspecification but are due to the sensitivity of smoothing loess regression (red line in FIG. 17) to outlying observations in the y-axis. The final model is given below: HRij=56.5−0.106*Parent+0.369*Metabolite+0.153*Time where HRij is subject specific heart rate, Parent refers to ANAVEX 2-73, and Metabolite is for ANAVEX 19-144.
Observed and unlikely to be observed concentrations of the parent drug and metabolite are used to predict heart rate, given the parameter estimates obtained with the exposure-heart rate model developed. […] Thus, the heart rate upon treatment with ANAVEX 2-73 is predicted to be below 75 beats/min.

The test system of series [3] is male healthy subjects. Details: species or system human. As to conditions: in vivo. The method, then: as §1
Subjects provided time-matched exposure-ECG data for analysis. For the exposure-QTc analysis, data obtained after the administration of doses greater than 1 mg were used. […] However, ECG data from the administration of the 1 mg dose were included in the categorical and outlier analysis.
as §2
In addition, categorical summaries of the ECG data were generated using the ICH E14 guidance-defined categories of QTc interval duration as well as change from baseline.
A protocol presented herein was a single ascending dose (SAD) phase I first-in-human study designed to investigate the safety and tolerability, and pharmacokinetics of ascending oral doses of ANAVEX 2-73 in male healthy subjects. The study was a randomized, double-blind, and placebo-controlled within each dosage step. It was a two cohort study with alternating single dose escalation performed in male healthy subjects. The subjects were divided into two cohorts of 8 subjects each—Cohort A (n=8), and Cohort B (n=8). However, 17 evaluable subjects were studied in a 8:9 ratio in cohorts A and B, respectively. The study comprised repeated treatment periods with at least 4 weeks of intermediary washout periods.
Per study protocol, triplicate 12-lead ECGs safety recordings were obtained at the following times: Day 1 at T0/pre-dose (3 baseline ECGs), T+0.25 h (15 min), T+0.5 h (30 min), T+1 h, T+2 h, T+4 h, T+8 h and T+12 h, on Day 2 at T+24 h, T+36 h, and on Day 3 at T+48 h. ECGs were recorded at each PK sampling time (i.e., 0.25, 0.5, 1, 2, 3, 4, 6, 8, 24, 36, and 48 hours after initiation of treatment). Thus, ECG recordings were time-matched with PK sampling.
ECG metrics evaluated included the heart rate (HR), the duration of QT interval, and the heart rate-corrected QT interval according to Fridericia's formula (QTcF). Change of QTcF from baseline (dQTcF), and placebo corrected QTcF (ΔΔQTcF) were generated from the data and used for the analysis.
Baseline ECG was defined as pre-dose baseline on each dosing occasion. Given the four weeks washout between dosing, the pre-dose baseline ECG was used as the baseline ECG for the particular dose/dosing occasion. A change from baseline variable for QTc interval (ΔQTcF) was calculated using pre-dose baseline.
ΔΔQTcF data was a single dose ascending study. As such not all subjects were administered placebo in each of the study periods. Only nine subjects were administered placebo in the course of the study. Consequently, it was not possible to make subject specific placebo correction. […]

The structures appear in SMILES notation. Entries after “also recorded” stand apart in the source; their conditions may differ. Where two headings read alike, the source gives them in different places. Some results are limits rather than exact numbers.

As for `CN(C)CC1CCOC1(c1ccccc1)c1ccccc1.Cl` (centres unmarked) [ANAVEX 2-73, 1-(2,2-diphenyltetrahydrofuran-3-yl)-N,N-dimethylmethanamine hydrochloride], in series [1], the “plasma concentration of the labelled analyte” value is recorded as “not quantifiable at most of the sampling times beyond two to four hours after dosing” and the concentration at 24 h was 2.23 ng/mL. Also, the Cmax in series [1] (oral, footnote a, read-out: ANAVEX 2-73 Concentration, observed Cmax from the QTc analysis dataset) is 46.2 ng/mL. Also, in the series with male healthy subjects [2], the “Slope on parent, exposure-heart rate model estimate” value is given as −0.106 beats/min/ng/mL and the “initial effects on heart rate” value is listed as “opposite initial effects on heart rate”. In the series on male healthy subjects [3], the QT interval prolongation result is on record as “does not prolong QT interval”, the “effect on dQTcF (exposure-dQTcF characterization)” value is given as “did not show any effect”, the “graphical relationship of paired concentrations with QTcF measurements” value is listed as “minimal positive trend” and the “relationship with ΔΔQTcF (placebo-adjusted change in QTcF)” value was “no relationship”. Moreover, in the series on male healthy subjects [3] (male, human), the “dQTcF (change in QTcF from baseline), any subject” value is listed as at most 30 ms.

Take `CNCC1CCOC1(c1ccccc1)c1ccccc1.Cl` (centres unmarked) [ANAVEX 19-144, 1-(2,2-diphenyltetrahydrofuran-3-yl)-N-methylmethanamine hydrochloride]: the “plasma concentration of the labelled analyte” value in series [1] (hydrochloride) is reported as “below the limit of detection; also recorded: not quantifiable”. Besides, in series [1] (footnote a, after oral ANAVEX 2-73, hydrochloride), the “ANAVEX 19-144 Concentration, observed Cmax from the QTc analysis dataset” value is reported as 23.96 ^a ng/mL. Also, in series [1], the concentration at 24 h turned out to be 3.33 ng/mL. Besides, the Cmax in series [1] (footnote a, after oral ANAVEX 2-73, read-out: ANAVEX 19-144 Concentration, observed Cmax from the QTc analysis dataset) was determined as 24 ng/mL. In addition, in the series with male healthy subjects [2], the “Slope on metabolite, exposure-heart rate model estimate” value was 0.369 beats/min/ng/mL and the “initial effects on heart rate” value is “opposite initial effects on heart rate”. Moreover, in the series on male healthy subjects [3], the anti-arrhythmic activity result was “anti-arrhythmic”, the “effect on dQTcF (exposure-dQTcF characterization)” value is “did not show any effect”, the “graphical relationship of paired concentrations with QTcF measurements” value is reported as “slight minimal upward trend from baseline followed by a slight negative trend” and the “relationship with ΔΔQTcF (placebo-adjusted change in QTcF)” value is reported as “no relationship”.
